This assay addresses collagenase. Description: Collagenase inhibition (analytical kit). It is filed as biochemical. Conditions: confidence interval in parentheses. The text has this: Table 2 - Inhibitory effect (IC50) of the different extracts obtained based on the interval of concentrations tested on the enzymes collagenase and elastase.

Structures are written as SMILES.

Turning to `O=C(O[C@@H]1Cc2c(O)cc(O)cc2O[C@@H]1c1cc(O)c(O)c(O)c1)c1cc(O)c(O)c(O)c1` [Epigallocatechin gallate], the “IC50 Collagenase” value is recorded as 4.8 (4.10-5.50) µg/mL.

Source of the values: patent publication EP3910064A1, “PROCESS OF OBTAINING A PHLOROTANNIN-ENRICHED EXTRACT HAVING ANTI-ENZYMATIC ACTION FOR USE IN DERMATOLOGY” (Instituto Politécnico De Leiria, priority 2020, dated 2021).
